In patent publication US20230082929A1, “METHODS OF GENERATING AND USING SENESCENT-INDUCED CELLS FOR TREATMENT OF CANCER AND COMPOSITIONS RELATING THERETO” (The Wistar Institute of Anatomy and Biology, priority 2020, published 2023):

Columns and labels:
SASP factors [1] = assay: SASP factor expression (qRT-PCR) and secretion (antibody array) in UPK10 cells; assay type: cell-based, mouse
Procedure: UPK10 and ID8 cells were treated with […], or a combination for three days. The drugs were then released from drug treatment and cultured for three days or extended period as indicated. The senescent cells were labelled with SPiDER-0 Gal Cellular Senescence Detection Kit (Dojindo, Cat. No: SG02-10) following the manufacture's instruction. Both senescent and non-senescent cells were sorted using flow cytometry. Mouse Cytokine Array C1 kit (RayBiotech. Cat. No: AAM-CYT-1-2) was used for cytokine analysis following the manufacturer's guidelines. Briefly, cells were washed once and cultured in serum-free medium for 48 hrs. Conditioned medium was filtered (0.2 μm) and then subjected to cytokine-array analysis. After collection of conditional media, the cell number of each sample was counted. The intensities of array dots were visualized on film after incubation with SuperSignal West Pico PLUS Chemiluminescent Substrate (Thermo Fisher Scientific. Cat. No: 34580). The integrated density was measured using Image J and normalized to the cell number from which the conditioned medium was generated. Total RNA was isolated using Trizol (Invitrogen) according to the manufacturer's instruction. Extracted RNAs were used for reverse-transcriptase PCR (RT-PCR) with High-Capacity cDNA Reverse Transcription Kit (Thermo fisher, Cat. No: 4368814). Quantitative PCR (qPCR) was performed using iTaq™ Universal SYBR® Green Supermix (BIO-RAD, Cat. No: 1725121) and QuantStudio 3 Real-Time PCR System.

ID8-Defb29/Vegf-a cells = assay: Cisplatin-induced senescence, SA-β-gal staining of ID8-Defb29/Vegf-a cells; assay type: cell-based, mouse; conditions: 2 μM Cisplatin for 48 hours
Procedure: For oncogene-induced senescence, IMR90 cells were infected with retrovirus produced by pBABE-puro-H-RAS^G12V (Addgene) at 37° C. for 24 hr. A second round of infection was performed on the same target cells. Infected cells were drug-selected using 3 μg/ml puromycin (Nacarelli et al., 2019). For Etoposide-induced senescence, IMR90 or OVCAR3 cells at approximately 60-70% confluency were treated with 50 μM or 2 μM Etoposide for 48 hours. The treated cells were cultured in fresh medium and harvested at day 8. For Cisplatin-induced senescence, OVCAR3 or ID8-Defb29/Vegf-a cells at approximately 60-70% confluency were treated with 2 μM Cisplatin for 48 hours. The treated cells were cultured in fresh medium and harvested at day 8.
(§1) SA-β-Gal staining was performed as previously described (Nacarelli et al., 2019). Briefly, cells were fixed for 5 mins at room temperature in 2% formaldehyde/0.2 glutaraldehyde in PBS. After washing twice with PBS, cells were stained at 37° C. overnight in a non-CO2 incubator in staining solution (40 mM Na2HPO4, pH 6.0, 150 mM NaCl, 2 mM MgCl2, 5 mM K3Fe(CN)6, 5 mM K4Fe(CN)6, and 1 mg/ml X-gal. After counterstaining with Nuclear Fast Red solution (Ricca, Cat. No: R5463200500), slides were subjected to an alcohol dehydration series and mounted with Permount (FisherScientific. Cat. No: SP15-100). Slides were examined using a Zeiss AxioImager A2.

UPK10 cells = assay: Senescence induction in UPK10 cells (SA-β-Gal, SPiDER SA-β-Gal, immunoblot); assay type: cell-based, mouse
Procedure: as §1
(§2) UPK10 and ID8 cells were treated with […], or a combination for three days. The drugs were then released from drug treatment and cultured for three days or extended period as indicated. The senescent cells were labelled with SPiDER-0 Gal Cellular Senescence Detection Kit (Dojindo, Cat. No: SG02-10) following the manufacture's instruction. Both senescent and non-senescent cells were sorted using flow cytometry.
(§3) Cells were lysed in 1× sample buffer (2% SDS, 10% glycerol, 0.01% bromophenol blue, 62.5 mM Tris, pH 6.8, and 0.1 M DTT) and heated to 95° C. for 10 min. Protein concentrations were determined using the protein assay dye (Bio-Rad. Cat. No: #5000006) and Nanodrop. An equal amount of total protein was resolved using SDS-PAGE gels and transferred to PVDF membranes at 110 V for 2 hours at 4° C. Membranes were blocked with 5% nonfat milk in TBS containing 0.1% Tween 20 (TBS-T) for 1 hour at room temperature. Membranes were incubated overnight at 4° C. in the primary antibodies in 4% BSA/TBS+0.025% sodium azide. Membranes were washed four times in TBS-T for 5 min at room temperature, after which they were incubated with HRP-conjugated secondary antibodies (Cell Signaling Technology. Cat. No: 7076S, 7074S) for 1 hour at room temperature. After washing four times in TBS-T for 5 min at room temperature, proteins were visualized on film after incubation with SuperSignal West Pico PLUS Chemiluminescent Substrate (Thermo Fisher Scientific. Cat. No: 34580).

TOP1cc = target: T1, TOP1cc (Mus musculus, UniProt Q04750); assay: Immunoblot of TOP1cc and SASP regulators in sorted UPK10 cells; assay type: cell-based
T1 construct: endogenous in cells; host or cells: UPK10 mouse ovarian cancer cells, sorted senescent and non-senescent fractions
T1 sequence (Q04750 1-767): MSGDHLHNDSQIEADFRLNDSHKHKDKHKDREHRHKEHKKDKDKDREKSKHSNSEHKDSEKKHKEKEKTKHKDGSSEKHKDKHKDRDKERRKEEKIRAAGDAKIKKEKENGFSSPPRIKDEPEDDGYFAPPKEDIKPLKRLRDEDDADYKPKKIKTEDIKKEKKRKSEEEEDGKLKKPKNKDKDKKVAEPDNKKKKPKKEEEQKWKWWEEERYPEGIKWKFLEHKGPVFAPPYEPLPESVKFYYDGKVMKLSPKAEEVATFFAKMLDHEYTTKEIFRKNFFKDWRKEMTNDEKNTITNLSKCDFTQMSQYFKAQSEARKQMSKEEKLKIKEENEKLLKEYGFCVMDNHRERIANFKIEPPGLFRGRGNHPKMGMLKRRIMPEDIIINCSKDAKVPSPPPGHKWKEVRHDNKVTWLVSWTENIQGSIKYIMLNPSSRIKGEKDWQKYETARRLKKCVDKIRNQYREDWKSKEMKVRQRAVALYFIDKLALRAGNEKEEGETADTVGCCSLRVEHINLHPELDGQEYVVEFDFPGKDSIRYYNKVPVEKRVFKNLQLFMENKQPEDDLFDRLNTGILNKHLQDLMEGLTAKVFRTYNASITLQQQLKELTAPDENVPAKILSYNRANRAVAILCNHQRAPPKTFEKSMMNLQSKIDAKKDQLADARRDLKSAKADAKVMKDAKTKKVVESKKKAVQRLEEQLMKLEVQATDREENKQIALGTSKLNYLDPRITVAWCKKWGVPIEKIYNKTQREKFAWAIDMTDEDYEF
Procedure: as §2, §3
• anti-Topoisomerase I-DNA Covalent Complexes (TOP1cc) (clone 1.1A) (Millipore. Cat. No: MABE1084), 1:1000 for slot blot • anti-TOP1 (Proteintech. Cat. No: 20705-1-AP), 1:1000 for immunoblotting • anti-cGAS (D9) (Santa Cruz. Cat. No: sc-515777), 1:1000 for immunoblotting; • anti-Cyclin A (H432) (Santa Cruz. Cat. No: sc-751), 1:1000 for immunoblotting; • anti-βactin (Sigma. Cat. No: A2228), 1:10000 for immunoblotting.

SASP factors [2] = assay: SASP factor expression by qRT-PCR in ID8 cells; assay type: cell-based, mouse
Procedure: UPK10 and ID8 cells were treated with […], or a combination for three days. The drugs were then released from drug treatment and cultured for three days or extended period as indicated. The senescent cells were labelled with SPiDER-0 Gal Cellular Senescence Detection Kit (Dojindo, Cat. No: SG02-10) following the manufacture's instruction. Both senescent and non-senescent cells were sorted using flow cytometry. Total RNA was isolated using Trizol (Invitrogen) according to the manufacturer's instruction. Extracted RNAs were used for reverse-transcriptase PCR (RT-PCR) with High-Capacity cDNA Reverse Transcription Kit (Thermo fisher, Cat. No: 4368814). Quantitative PCR (qPCR) was performed using iTaq™ Universal SYBR® Green Supermix (BIO-RAD, Cat. No: 1725121) and QuantStudio 3 Real-Time PCR System.

[3] = cisplatin three days, three days of release

With `Cc1ccc2c(=O)c3cccc(CC(=O)O)c3oc2c1C` [DMXAA] the “SASP factor levels compared with senescent cells sorted from cisplatin and irinotecan combination treatment” value (SASP factors [1]; UPK10 cells) was “significantly lower levels” and the “expression and secretion of SASP factors” value (SASP factors [1]; UPK10 cells, DMXAA as control) was “sufficient to increase the expression and secretion of SASP factors”.

In the case of `N.N.[Cl][Pt][Cl]` [cisplatin, Cisplatin], the “treated cells in which senescence was induced” value (ID8-Defb29/Vegf-a cells) is reported as roughly 100%, the “cell proliferation marker cyclin A” value (UPK10 cells; [3]) is reported as “decrease in cell proliferation marker cyclin A” and the “markers of senescence (SA-β-Gal activity, p16, γH2AX)” value (UPK10 cells; [3]) is reported as “induction of markers of senescence including senescence-associated β-galactosidase (SA-β-Gal) activity, p16 and γH2AX”. The “concentration chosen on optimal induction of SASP factors IL1β, IL8, CXCL10 in a dose-titration study” value (SASP factors [1]; UPK10 cells) was 10 µM.

For `CCc1c2c(nc3ccc(OC(=O)N4CCC(N5CCCCC5)CC4)cc13)-c1cc3c(c(=O)n1C2)COC(=O)[C@]3(O)CC` [irinotecan], the “percentage of senescent cells induced by cisplatin with or without irinotecan (SPiDER SA-β-Gal)” value (UPK10 cells) was “comparable”, the “SA-β-Gal activity (SPiDER)” value (UPK10 cells; irinotecan alone) was “also induced SA-β-Gal activity” and the “expression of SASP factors at the mRNA levels (qRT-PCR)” value (SASP factors [1]; sorted senescent UPK10 cells induced by cisplatin) was “significantly increased the expression of SASP factors”. For the same compound, the “TOP1cc levels in sorted senescent cells” value (TOP1cc; compared with cisplatin-induced senescent cells, UPK10) was “increased by irinotecan addition”, the “TOP1cc levels in sorted non-senescent cells” value (TOP1cc; compared with vehicle control treated non-senescent cells, UPK10) was “notably higher” and the “SASP regulators phospho-p65 NF-κB and phosphor-p38 MAPK” value (TOP1cc; sorted senescent UPK10 cells) was “increase in SASP regulators such as phospho-p65 NF-κB and phosphor-p38 MAPK”. For the same compound, the “SASP expression in cisplatin-induced senescent ID8 cells” value (SASP factors [2]) was “boosts SASP expression”.
